Reference: patent US20260001928A1 (CORTERIA PHARMACEUTICALS, priority 2022, published 2026)
*1 amine or outer side, *2 acyl side, *3 side chain or, on linkers, in order; H or OH if unused. Where a SMILES comes first, the peptide text is derived from it. Side-chain parts run from the residue outwards. [ ]: non-standard residue; d: D form. The star is where a group is joined. C18 diacid = O=C(O)CCCCCCCCCCCCCCCCC(=O)*; C16 diacid = O=C(O)CCCCCCCCCCCCCCC(=O)*; γGlu = O=C(O)[C@H](CCC(=O)[*:2])N[*:1]; NMeI = CC[C@H](C)[C@H](NC)C(=O)O; Pentanoyl = CCCCC(=O)*; AEEA = NCCOCCOCC(=O)O; Aib = CC(C)(N)C(=O)O; Propionyl = CCC(=O)*; Butyryl = CCCC(=O)*

How the values were obtained:
human CRF2a receptor = biological target: T1, human CRF2a receptor (Homo sapiens, UniProt Q13324); experiment: Activity at human CRF2a receptor, cAMP functional assay in TeloHEAC cells; assay type: cell-based; settings: TeloHEAC cells stably expressing human CRF2a receptor, relative to urocortin 2 (100 nM = 100%)
T1 construct: expressed in transfected cells; host or cells: TeloHEAC cells
T1 sequence (Q13324 1-411): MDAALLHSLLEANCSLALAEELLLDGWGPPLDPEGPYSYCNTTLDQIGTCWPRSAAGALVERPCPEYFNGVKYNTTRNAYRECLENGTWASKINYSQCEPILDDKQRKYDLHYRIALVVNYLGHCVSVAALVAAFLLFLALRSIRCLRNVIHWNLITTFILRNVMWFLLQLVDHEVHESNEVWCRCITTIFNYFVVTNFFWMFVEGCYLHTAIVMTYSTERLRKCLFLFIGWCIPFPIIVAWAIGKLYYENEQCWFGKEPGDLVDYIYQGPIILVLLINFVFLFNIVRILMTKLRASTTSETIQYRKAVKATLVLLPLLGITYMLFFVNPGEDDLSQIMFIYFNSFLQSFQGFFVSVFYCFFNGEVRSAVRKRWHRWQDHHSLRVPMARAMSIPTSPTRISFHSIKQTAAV
Method in brief: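 TeloHEAC cells stably expressing human CRF2a (10000 cells/well) were treated with 16-point 1:2 compound dilutions in HBSS/20 mM HEPES with IBMX for 30 min at 37° C. cAMP was read by HTRF (665/620 nm ratio). EC50 was the concentration giving 50% activation, with 100 nM urocortin 2 set as 100%.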

CFR1R receptor = biological target: T2, CFR1R receptor (Homo sapiens, UniProt P34998); experiment: Activity at anti-target CFR1R receptor, cAMP assay in CRF1R-overexpression CHO-K1 cells; assay type: cell-based; settings: 100% = Sauvagine at 100 nM; for EC50: cAMP
T2 construct: host or cells: CHO-K1 (clone 2)
T2 sequence (P34998 24-415): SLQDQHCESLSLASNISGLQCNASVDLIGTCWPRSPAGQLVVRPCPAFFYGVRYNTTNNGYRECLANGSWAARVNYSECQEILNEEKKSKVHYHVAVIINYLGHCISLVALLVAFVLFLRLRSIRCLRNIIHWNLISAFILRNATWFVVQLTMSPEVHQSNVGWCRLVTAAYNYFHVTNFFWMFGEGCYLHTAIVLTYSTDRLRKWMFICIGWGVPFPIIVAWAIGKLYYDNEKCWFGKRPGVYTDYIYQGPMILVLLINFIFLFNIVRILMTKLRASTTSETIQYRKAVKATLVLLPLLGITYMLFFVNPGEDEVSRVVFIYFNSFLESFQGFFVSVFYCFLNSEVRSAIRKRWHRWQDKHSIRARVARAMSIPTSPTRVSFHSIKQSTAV
Method in brief: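 Signal is normalised to 100 nM Sauvagine, taken as 100% activation, in clone 2 cells plated at a final 4000 cells/well from frozen stocks.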

SMILES | EC50 (human CRF2a receptor) [nM] | Emax (% I) (CFR1R receptor) | EC50 (CFR1R receptor) [nM]
CC[C@H](C)[C@H](NC)C(=O)N[C@H](C(=O)N[C@@H](CC(C)C)C(=O)N[C@@H](CO)C(=O)N[C@@H](CC(C)C)C(=O)N[C@@H](CC(=O)O)C(=O)N[C@@H](C(=O)N1CCC[C@H]1C(=O)N[C@H](C(=O)N[C@@H](CCCCN)C(=O)N[C@@H](CC(C)C)C(=O)N[C@@H](CCCCNC(=O)CC[C@H](NC(=O)CCCCCCCCCCCCCCC(=O)O)C(=O)O)C(=O)N[C@@H](CCCCN)C(=O)N[C@H](C(=O)N[C@@H](CC(C)C)C(=O)N[C@@H](CC(C)C)C(=O)N[C@@H](CCC(=O)O)C(=O)N[C@@H](CCC(N)=O)C(=O)N[C@@H](CCC(=O)O)C(=O)N[C@@H](CCCCN)C(=O)N[C@@H](CCC(N)=O)C(=O)N[C@@H](CCCCN)C(=O)NC(C)(C)C(=O)N[C@@H](CCC(N)=O)C(=O)N[C@@H](CCCNC(=N)N)C(=O)N[C@@H](CCC(=O)O)C(=O)N[C@@H](CCC(N)=O)C(=O)N[C@@H](C)C(=O)N[C@@H](CCC(=O)O)C(=O)N[C@H](C(=O)N[C@@H](CC(N)=O)C(=O)NC(C)(C)C(=O)N[C@@H](CCC(N)=O)C(=O)N[C@H](C(=O)N[C@@H](CC(C)C)C(=O)N[C@@H](C)C(=O)N[C@@H](CCC(N)=O)C(=O)N[C@H](C(N)=O)C(C)C)[C@@H](C)CC)[C@@H](C)O)[C@@H](C)CC)[C@@H](C)CC)C(C)C)C(C)C [compound 75] (H-[NMeI]VLSLD[dV]PIKLK([γGlu-C16 diacid])KILLEQEKQK[Aib]QREQAETN[Aib]QILAQV-NH2) | 0.19 | 3 | > 250
CCC(=O)N[C@H](C(=O)N[C@@H](CC(C)C)C(=O)N[C@@H](CO)C(=O)N[C@@H](CC(C)C)C(=O)N[C@@H](CC(=O)O)C(=O)N[C@@H](C(=O)N1CCC[C@H]1C(=O)N[C@H](C(=O)N[C@@H](CCCCN)C(=O)N[C@@H](CC(C)C)C(=O)N[C@@H](CCCCNC(=O)CC[C@H](NC(=O)CCCCCCCCCCCCCCC(=O)O)C(=O)O)C(=O)N[C@@H](CCCCN)C(=O)N[C@H](C(=O)N[C@@H](CC(C)C)C(=O)N[C@@H](CC(C)C)C(=O)N[C@@H](CCC(=O)O)C(=O)N[C@@H](CCC(N)=O)C(=O)N[C@@H](CCC(=O)O)C(=O)N[C@@H](CCCCN)C(=O)N[C@@H](CCC(N)=O)C(=O)N[C@@H](CCCCN)C(=O)N[C@@H](CCCCN)C(=O)N[C@@H](CCC(N)=O)C(=O)N[C@@H](CCCNC(=N)N)C(=O)N[C@@H](CCC(=O)O)C(=O)N[C@@H](CCC(N)=O)C(=O)N[C@@H](C)C(=O)N[C@@H](CCC(=O)O)C(=O)N[C@H](C(=O)N[C@@H](CC(N)=O)C(=O)NC(C)(C)C(=O)N[C@@H](CCC(N)=O)C(=O)N[C@H](C(=O)N[C@@H](CC(C)C)C(=O)N[C@@H](C)C(=O)N[C@@H](CCC(N)=O)C(=O)N[C@H](C(N)=O)C(C)C)[C@@H](C)CC)[C@@H](C)O)[C@@H](C)CC)[C@@H](C)CC)C(C)C)C(C)C [compound 78] (Propionyl-VLSLD[dV]PIKLK([γGlu-C16 diacid])KILLEQEKQKKQREQAETN[Aib]QILAQV-NH2) | 0.73 | 7 | > 250
CCCC(=O)N[C@H](C(=O)N[C@@H](CC(C)C)C(=O)N[C@@H](CO)C(=O)N[C@@H](CC(C)C)C(=O)N[C@@H](CC(=O)O)C(=O)N[C@@H](C(=O)N1CCC[C@H]1C(=O)N[C@H](C(=O)N[C@@H](CCCCN)C(=O)N[C@@H](CC(C)C)C(=O)N[C@@H](CCCCNC(=O)CC[C@H](NC(=O)CCCCCCCCCCCCCCC(=O)O)C(=O)O)C(=O)N[C@@H](CCCCN)C(=O)N[C@H](C(=O)N[C@@H](CC(C)C)C(=O)N[C@@H](CC(C)C)C(=O)N[C@@H](CCC(=O)O)C(=O)N[C@@H](CCC(N)=O)C(=O)N[C@@H](CCC(=O)O)C(=O)N[C@@H](CCCCN)C(=O)N[C@@H](CCC(N)=O)C(=O)N[C@@H](CCCCN)C(=O)N[C@@H](CCCCN)C(=O)N[C@@H](CCC(N)=O)C(=O)N[C@@H](CCCNC(=N)N)C(=O)N[C@@H](CCC(=O)O)C(=O)N[C@@H](CCC(N)=O)C(=O)N[C@@H](C)C(=O)N[C@@H](CCC(=O)O)C(=O)N[C@H](C(=O)N[C@@H](CC(N)=O)C(=O)NC(C)(C)C(=O)N[C@@H](CCC(N)=O)C(=O)N[C@H](C(=O)N[C@@H](CC(C)C)C(=O)N[C@@H](C)C(=O)N[C@@H](CCC(N)=O)C(=O)N[C@H](C(N)=O)C(C)C)[C@@H](C)CC)[C@@H](C)O)[C@@H](C)CC)[C@@H](C)CC)C(C)C)C(C)C [compound 79] (Butyryl-VLSLD[dV]PIKLK([γGlu-C16 diacid])KILLEQEKQKKQREQAETN[Aib]QILAQV-NH2) | 0.38 | 10 | > 250

Second part, the molecule after the results:

EC50 (human CRF2a receptor) [nM] | Emax (% I) (CFR1R receptor) | EC50 (CFR1R receptor) [nM] | SMILES
0.8 | 6 | > 250 | CCCCC(=O)N[C@H](C(=O)N[C@@H](CC(C)C)C(=O)N[C@@H](CO)C(=O)N[C@@H](CC(C)C)C(=O)N[C@@H](CC(=O)O)C(=O)N[C@@H](C(=O)N1CCC[C@H]1C(=O)N[C@H](C(=O)N[C@@H](CCCCN)C(=O)N[C@@H](CC(C)C)C(=O)N[C@@H](CCCCNC(=O)CC[C@H](NC(=O)CCCCCCCCCCCCCCC(=O)O)C(=O)O)C(=O)N[C@@H](CCCCN)C(=O)N[C@H](C(=O)N[C@@H](CC(C)C)C(=O)N[C@@H](CC(C)C)C(=O)N[C@@H](CCC(=O)O)C(=O)N[C@@H](CCC(N)=O)C(=O)N[C@@H](CCC(=O)O)C(=O)N[C@@H](CCCCN)C(=O)N[C@@H](CCC(N)=O)C(=O)N[C@@H](CCCCN)C(=O)N[C@@H](CCCCN)C(=O)N[C@@H](CCC(N)=O)C(=O)N[C@@H](CCCNC(=N)N)C(=O)N[C@@H](CCC(=O)O)C(=O)N[C@@H](CCC(N)=O)C(=O)N[C@@H](C)C(=O)N[C@@H](CCC(=O)O)C(=O)N[C@H](C(=O)N[C@@H](CC(N)=O)C(=O)N[C@H](C(=O)N[C@@H](CCC(N)=O)C(=O)N[C@H](C(=O)N[C@@H](CC(C)C)C(=O)N[C@@H](C)C(=O)N[C@@H](CCC(N)=O)C(=O)N[C@H](C(N)=O)C(C)C)[C@@H](C)CC)C(C)C)[C@@H](C)O)[C@@H](C)CC)[C@@H](C)CC)C(C)C)C(C)C [compound 81] (Pentanoyl-VLSLD[dV]PIKLK([γGlu-C16 diacid])KILLEQEKQKKQREQAETNVQILAQV-NH2)
1.48 | 0 | > 250 | CCC(=O)N[C@H](C(=O)N[C@@H](CC(C)C)C(=O)N[C@@H](CO)C(=O)N[C@@H](CC(C)C)C(=O)N[C@@H](CC(=O)O)C(=O)N[C@H](C(=O)N1CCC[C@H]1C(=O)N[C@H](C(=O)N[C@@H](CCCCN)C(=O)N[C@@H](CC(C)C)C(=O)N[C@@H](CCCCNC(=O)COCCOCCNC(=O)COCCOCCNC(=O)CC[C@H](NC(=O)CCCCCCCCCCCCCCCCC(=O)O)C(=O)O)C(=O)N[C@@H](CCCCN)C(=O)N[C@H](C(=O)N[C@@H](CC(C)C)C(=O)N[C@@H](CC(C)C)C(=O)N[C@@H](CCC(=O)O)C(=O)N[C@@H](CCC(N)=O)C(=O)N[C@@H](CCC(=O)O)C(=O)N[C@@H](CCCCN)C(=O)N[C@@H](CCC(N)=O)C(=O)N[C@@H](CCCCN)C(=O)N[C@@H](CCCCN)C(=O)N[C@@H](CCC(N)=O)C(=O)N[C@@H](CCCNC(=N)N)C(=O)N[C@@H](CCC(=O)O)C(=O)N[C@@H](CCC(N)=O)C(=O)N[C@@H](C)C(=O)N[C@@H](CCC(=O)O)C(=O)N[C@H](C(=O)N[C@@H](CC(N)=O)C(=O)N[C@@H](CCCCN)C(=O)N[C@@H](CCC(N)=O)C(=O)N[C@H](C(=O)N[C@@H](CC(C)C)C(=O)N[C@@H](C)C(=O)N[C@@H](CCC(N)=O)C(=O)N[C@H](C(N)=O)C(C)C)[C@@H](C)CC)[C@@H](C)O)[C@@H](C)CC)[C@@H](C)CC)C(C)C)C(C)C [compound 94] (Propionyl-VLSLDVPIKLK([AEEA-AEEA-γGlu-C18 diacid])KILLEQEKQKKQREQAETNKQILAQV-NH2)
